Holding throughout (type): biochemical
In experiment [1] the target is MLK1 (Homo sapiens, UniProt P80192). The experiment in a line: Kinase profiling MLK1. As to conditions: 100 micromolar inhibitor concentration, 100 is no change; for remaining activity at 100 µM: read-out: residual kinase activity, MLK1. The text has this:
(§1) Any value less that 25 is considered to be highly significant inhibition.

The test system of experiment [2] is PHK. Kind of experiment: Kinase profiling PHK. As to conditions: 100 micromolar inhibitor concentration; 100 is no change.
Excerpt: as §1

Experiment [3] concerns the target CK1γ2 (Homo sapiens, UniProt P78368). The experiment in a line: Kinase profiling CK1γ2. As to conditions: 100 micromolar inhibitor concentration, 100 is no change; for remaining activity at 100 µM: read-out: residual kinase activity, CK1γ2.
Excerpt: as §1

Experiment [4] deals with T1, ASK1 (Homo sapiens, UniProt Q99683).
T1 sequence (Q99683 1-1374): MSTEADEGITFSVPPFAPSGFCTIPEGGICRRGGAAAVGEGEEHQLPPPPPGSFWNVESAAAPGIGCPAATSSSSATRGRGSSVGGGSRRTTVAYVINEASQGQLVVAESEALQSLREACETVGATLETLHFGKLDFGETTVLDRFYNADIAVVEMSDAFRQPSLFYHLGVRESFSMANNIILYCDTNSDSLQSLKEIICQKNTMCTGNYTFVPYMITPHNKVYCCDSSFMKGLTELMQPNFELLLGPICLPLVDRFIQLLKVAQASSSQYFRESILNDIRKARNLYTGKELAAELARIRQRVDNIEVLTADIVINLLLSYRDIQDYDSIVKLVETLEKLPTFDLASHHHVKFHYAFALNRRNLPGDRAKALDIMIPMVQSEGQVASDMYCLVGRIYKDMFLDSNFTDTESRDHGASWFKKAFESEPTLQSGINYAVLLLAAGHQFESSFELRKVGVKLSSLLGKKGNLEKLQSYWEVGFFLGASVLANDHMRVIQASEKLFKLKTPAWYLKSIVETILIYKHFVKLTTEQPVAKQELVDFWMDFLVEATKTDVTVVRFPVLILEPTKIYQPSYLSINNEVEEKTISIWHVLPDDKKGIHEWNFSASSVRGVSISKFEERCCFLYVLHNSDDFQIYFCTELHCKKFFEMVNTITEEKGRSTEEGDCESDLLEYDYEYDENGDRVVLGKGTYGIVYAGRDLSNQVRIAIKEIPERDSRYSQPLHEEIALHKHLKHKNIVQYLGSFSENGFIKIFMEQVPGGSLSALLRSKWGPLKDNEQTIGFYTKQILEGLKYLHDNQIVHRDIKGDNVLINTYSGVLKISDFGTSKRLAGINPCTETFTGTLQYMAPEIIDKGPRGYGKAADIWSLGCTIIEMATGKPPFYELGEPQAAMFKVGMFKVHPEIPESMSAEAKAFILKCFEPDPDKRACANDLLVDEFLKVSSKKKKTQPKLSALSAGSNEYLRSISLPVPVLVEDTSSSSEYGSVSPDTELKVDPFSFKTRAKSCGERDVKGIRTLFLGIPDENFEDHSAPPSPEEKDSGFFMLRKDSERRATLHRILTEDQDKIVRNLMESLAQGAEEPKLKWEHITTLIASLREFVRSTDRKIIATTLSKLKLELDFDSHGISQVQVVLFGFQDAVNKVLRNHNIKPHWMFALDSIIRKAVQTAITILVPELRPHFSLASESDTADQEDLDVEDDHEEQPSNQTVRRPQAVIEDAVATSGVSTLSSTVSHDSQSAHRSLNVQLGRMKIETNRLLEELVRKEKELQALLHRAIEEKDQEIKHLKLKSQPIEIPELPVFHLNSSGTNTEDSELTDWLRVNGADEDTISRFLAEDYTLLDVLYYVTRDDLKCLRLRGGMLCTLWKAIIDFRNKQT
The experiment in a line: Kinase profiling ASK1. As to conditions: 100 micromolar inhibitor concentration, 100 is no change; for remaining activity at 100 µM: read-out: residual kinase activity, ASK1.
Excerpt: as §1

The target of experiment [5] is IRAK1 (Homo sapiens, UniProt P51617). The experiment in a line: Kinase profiling IRAK1. As to conditions: 100 micromolar inhibitor concentration, 100 is no change; for remaining activity at 100 µM: read-out: residual kinase activity, IRAK1.
IRAK1, sequence (P51617 whole entry, species assumed): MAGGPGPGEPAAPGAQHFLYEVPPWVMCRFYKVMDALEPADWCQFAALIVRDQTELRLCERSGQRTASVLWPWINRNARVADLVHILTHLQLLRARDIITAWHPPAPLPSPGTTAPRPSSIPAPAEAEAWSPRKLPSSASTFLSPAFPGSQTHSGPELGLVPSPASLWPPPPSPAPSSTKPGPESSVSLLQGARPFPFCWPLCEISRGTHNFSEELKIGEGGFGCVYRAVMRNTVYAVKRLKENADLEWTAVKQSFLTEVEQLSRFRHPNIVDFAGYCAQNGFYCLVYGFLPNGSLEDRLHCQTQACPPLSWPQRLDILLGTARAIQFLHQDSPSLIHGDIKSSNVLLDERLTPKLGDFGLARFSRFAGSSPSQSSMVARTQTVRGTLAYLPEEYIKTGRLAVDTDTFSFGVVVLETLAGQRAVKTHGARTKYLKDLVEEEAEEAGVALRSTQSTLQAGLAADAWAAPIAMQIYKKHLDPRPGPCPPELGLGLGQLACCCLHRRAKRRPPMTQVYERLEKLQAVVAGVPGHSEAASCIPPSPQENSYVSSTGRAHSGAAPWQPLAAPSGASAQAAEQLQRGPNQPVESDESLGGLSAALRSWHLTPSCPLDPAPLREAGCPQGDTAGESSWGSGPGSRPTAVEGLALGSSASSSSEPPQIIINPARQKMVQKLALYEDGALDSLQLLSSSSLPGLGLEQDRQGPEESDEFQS
Excerpt: as §1

Experiment [6] has as its target T2, MAP4K3 (Homo sapiens, UniProt Q8IVH8).
T2 sequence (Q8IVH8 1-894): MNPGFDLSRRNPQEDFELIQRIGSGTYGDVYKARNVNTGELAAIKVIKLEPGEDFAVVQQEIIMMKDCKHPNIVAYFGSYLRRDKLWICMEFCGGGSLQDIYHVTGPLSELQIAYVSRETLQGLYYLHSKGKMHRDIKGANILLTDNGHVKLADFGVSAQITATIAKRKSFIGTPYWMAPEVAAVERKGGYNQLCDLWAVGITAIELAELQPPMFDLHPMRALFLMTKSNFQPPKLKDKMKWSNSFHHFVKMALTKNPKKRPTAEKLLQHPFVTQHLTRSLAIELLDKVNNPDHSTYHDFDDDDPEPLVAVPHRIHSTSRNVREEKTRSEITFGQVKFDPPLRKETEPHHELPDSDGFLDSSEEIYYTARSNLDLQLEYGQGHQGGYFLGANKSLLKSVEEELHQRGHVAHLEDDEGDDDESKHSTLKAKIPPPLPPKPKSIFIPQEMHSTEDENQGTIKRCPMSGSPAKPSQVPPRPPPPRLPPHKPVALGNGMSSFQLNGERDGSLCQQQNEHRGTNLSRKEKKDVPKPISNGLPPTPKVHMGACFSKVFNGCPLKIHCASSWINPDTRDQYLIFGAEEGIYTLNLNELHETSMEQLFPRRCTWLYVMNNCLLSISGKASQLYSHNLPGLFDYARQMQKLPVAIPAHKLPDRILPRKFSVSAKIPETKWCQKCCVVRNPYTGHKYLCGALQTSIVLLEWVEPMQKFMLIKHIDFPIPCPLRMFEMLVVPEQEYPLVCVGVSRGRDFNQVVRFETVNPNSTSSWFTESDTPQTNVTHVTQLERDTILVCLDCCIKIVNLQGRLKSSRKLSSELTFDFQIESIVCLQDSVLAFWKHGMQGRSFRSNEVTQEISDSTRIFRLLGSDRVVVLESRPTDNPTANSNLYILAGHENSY
Kind of experiment: Kinase profiling MAP4K3. As to conditions: 100 micromolar inhibitor concentration, 100 is no change; for remaining activity at 100 µM: read-out: residual kinase activity, MAP4K3.
Excerpt: as §1

Experiment [7] addresses DAPK1 (Homo sapiens, UniProt P53355). The experiment in a line: Kinase profiling DAPK1. As to conditions: 100 micromolar inhibitor concentration, 100 is no change; for remaining activity at 100 µM: read-out: residual kinase activity, DAPK1.
Excerpt: as §1

CK1γ2, sequence (P78368 whole entry): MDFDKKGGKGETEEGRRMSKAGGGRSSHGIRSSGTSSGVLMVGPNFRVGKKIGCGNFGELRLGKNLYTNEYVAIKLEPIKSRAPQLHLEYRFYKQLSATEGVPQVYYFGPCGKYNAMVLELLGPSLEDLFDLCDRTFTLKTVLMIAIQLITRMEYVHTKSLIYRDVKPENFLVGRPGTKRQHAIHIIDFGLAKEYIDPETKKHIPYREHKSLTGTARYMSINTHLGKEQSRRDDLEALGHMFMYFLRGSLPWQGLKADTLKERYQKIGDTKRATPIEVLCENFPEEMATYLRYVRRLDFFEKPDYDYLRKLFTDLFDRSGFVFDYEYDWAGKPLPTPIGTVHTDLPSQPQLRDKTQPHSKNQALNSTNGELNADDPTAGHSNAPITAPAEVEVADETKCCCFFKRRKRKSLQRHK
MLK1, sequence (P80192 whole entry, species assumed): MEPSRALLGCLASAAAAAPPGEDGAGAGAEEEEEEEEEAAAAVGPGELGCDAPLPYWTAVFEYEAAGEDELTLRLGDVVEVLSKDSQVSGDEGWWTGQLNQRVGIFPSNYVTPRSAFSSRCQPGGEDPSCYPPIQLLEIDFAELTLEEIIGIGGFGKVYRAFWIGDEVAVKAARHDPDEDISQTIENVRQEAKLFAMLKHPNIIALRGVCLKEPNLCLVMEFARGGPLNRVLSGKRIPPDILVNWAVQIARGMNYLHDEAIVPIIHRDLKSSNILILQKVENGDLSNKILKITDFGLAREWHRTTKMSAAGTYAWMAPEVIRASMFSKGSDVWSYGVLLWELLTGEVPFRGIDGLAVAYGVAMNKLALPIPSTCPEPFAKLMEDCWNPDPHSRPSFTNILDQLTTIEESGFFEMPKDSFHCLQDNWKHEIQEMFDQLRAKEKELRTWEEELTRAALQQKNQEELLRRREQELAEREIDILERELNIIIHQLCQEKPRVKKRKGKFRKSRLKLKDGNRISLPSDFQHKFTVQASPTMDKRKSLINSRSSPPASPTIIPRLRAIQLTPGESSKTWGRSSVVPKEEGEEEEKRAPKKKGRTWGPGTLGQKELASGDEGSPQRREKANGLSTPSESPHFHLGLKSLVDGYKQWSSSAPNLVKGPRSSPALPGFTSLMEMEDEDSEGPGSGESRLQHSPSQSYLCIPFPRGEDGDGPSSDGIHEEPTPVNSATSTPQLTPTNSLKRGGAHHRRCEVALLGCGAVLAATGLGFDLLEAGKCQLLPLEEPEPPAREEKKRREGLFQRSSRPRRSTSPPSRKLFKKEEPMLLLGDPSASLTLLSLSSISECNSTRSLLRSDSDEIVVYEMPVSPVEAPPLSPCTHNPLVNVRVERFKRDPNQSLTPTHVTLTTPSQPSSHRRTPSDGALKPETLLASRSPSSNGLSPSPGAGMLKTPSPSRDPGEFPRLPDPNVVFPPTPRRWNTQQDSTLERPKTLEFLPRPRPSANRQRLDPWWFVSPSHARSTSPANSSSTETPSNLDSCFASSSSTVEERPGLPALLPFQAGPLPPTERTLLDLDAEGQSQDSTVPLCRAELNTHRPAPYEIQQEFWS
DAPK1, sequence (P53355 whole entry, species assumed): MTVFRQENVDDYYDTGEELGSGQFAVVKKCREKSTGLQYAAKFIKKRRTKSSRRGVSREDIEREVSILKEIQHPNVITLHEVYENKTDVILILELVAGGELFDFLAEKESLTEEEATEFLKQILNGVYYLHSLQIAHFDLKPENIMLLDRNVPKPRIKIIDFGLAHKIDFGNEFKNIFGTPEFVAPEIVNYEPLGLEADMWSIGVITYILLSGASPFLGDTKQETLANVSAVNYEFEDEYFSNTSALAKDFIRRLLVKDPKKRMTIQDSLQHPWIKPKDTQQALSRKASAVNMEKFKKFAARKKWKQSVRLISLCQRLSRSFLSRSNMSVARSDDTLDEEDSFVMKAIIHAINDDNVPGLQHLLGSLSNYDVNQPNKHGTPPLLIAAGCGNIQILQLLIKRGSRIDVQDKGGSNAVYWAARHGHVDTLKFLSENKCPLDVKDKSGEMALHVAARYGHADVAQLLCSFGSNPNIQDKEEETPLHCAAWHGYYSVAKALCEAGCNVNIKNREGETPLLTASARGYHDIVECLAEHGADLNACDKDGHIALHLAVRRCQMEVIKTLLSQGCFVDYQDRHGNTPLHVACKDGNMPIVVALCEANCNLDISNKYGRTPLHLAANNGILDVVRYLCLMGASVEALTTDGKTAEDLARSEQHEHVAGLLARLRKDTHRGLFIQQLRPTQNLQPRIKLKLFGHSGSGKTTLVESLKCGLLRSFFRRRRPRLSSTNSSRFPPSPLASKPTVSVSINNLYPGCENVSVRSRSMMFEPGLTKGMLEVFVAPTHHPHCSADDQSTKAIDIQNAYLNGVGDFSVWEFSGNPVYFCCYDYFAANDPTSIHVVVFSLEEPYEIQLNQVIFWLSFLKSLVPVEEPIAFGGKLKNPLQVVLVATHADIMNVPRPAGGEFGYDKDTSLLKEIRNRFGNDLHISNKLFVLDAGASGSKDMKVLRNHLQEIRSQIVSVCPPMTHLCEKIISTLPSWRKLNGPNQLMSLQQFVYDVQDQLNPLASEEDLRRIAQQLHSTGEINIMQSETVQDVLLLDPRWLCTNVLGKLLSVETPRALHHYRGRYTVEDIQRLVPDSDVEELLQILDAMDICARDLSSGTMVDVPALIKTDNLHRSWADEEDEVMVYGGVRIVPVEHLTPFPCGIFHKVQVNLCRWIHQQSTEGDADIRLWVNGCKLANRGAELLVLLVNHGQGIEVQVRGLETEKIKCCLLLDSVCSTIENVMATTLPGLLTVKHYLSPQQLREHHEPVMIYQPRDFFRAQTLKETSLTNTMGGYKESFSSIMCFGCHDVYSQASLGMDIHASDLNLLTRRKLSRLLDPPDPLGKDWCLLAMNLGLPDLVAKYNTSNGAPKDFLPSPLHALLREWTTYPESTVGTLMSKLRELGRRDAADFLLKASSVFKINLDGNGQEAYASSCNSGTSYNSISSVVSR

As to `CC(=O)Nc1nc2cc(C(F)(F)F)ccc2s1` [Compound 03-73], the remaining activity at 100 µM in experiment [1] amounted to 75%; in experiment [3] it was 79%; in experiment [4], 83%; in experiment [5], 85%; in experiment [6], 63%; in experiment [7], 93%. Also, the “residual kinase activity, PHK” value in experiment [2] turned out to be 91.

As to `CC(=O)Nc1nc2cc(C)ccc2s1` [Compound 03-76], the “residual kinase activity, MLK1” value in experiment [1] was determined as 57. The “residual kinase activity, PHK” value in experiment [2] is on record as 87. The “residual kinase activity, CK1γ2” value in experiment [3] came out at 54. Also, the “residual kinase activity, ASK1” value in experiment [4] stood at 23. Moreover, in experiment [5], the “residual kinase activity, IRAK1” value is 59. The “residual kinase activity, MAP4K3” value in experiment [6] was 80. The “residual kinase activity, DAPK1” value in experiment [7] is 82.

Consider `CC(=O)Nc1nc2cc(F)ccc2s1` [Compound 03-77], for which the remaining activity at 100 µM in experiment [1] stood at 58%; in experiment [3], 22%; in experiment [4], 54%; in experiment [5] it was 46%; in experiment [6] it was 55%; in experiment [7] it was 82%. Further, the “residual kinase activity, PHK” value in experiment [2] was 89.

Consider `O=C(Nc1nc2ccc(O)cc2s1)c1ccncc1` [Compound 08-42], for which, in experiment [1], the “residual kinase activity, MLK1” value came to 33. In addition, in experiment [2], the “residual kinase activity, PHK” value is 58. The “residual kinase activity, CK1γ2” value in experiment [3] is listed as 62. Moreover, the “residual kinase activity, ASK1” value in experiment [4] is reported as 37. Also, the “residual kinase activity, IRAK1” value in experiment [5] is reported as 38. Moreover, in experiment [6], the “residual kinase activity, MAP4K3” value came out at 48. Besides, in experiment [7], the “residual kinase activity, DAPK1” value is recorded as 32.

Turning to `O=C(Nc1nc2ccc(O)cc2s1)c1cccnc1` [Compound 08-44], in experiment [1], the “residual kinase activity, MLK1” value is reported as 13. Moreover, the “residual kinase activity, PHK” value in experiment [2] is 43. Besides, in experiment [3], the “residual kinase activity, CK1γ2” value is listed as 20. Besides, the “residual kinase activity, ASK1” value in experiment [4] came to 18. Further, in experiment [5], the “residual kinase activity, IRAK1” value amounted to 37. In addition, in experiment [6], the “residual kinase activity, MAP4K3” value came out at 56. Also, the “residual kinase activity, DAPK1” value in experiment [7] is recorded as 26.

Source of the values: patent publication US10231954B2, “Neurodegenerative therapies” (LYTIX BIOPHARMA AS, priority 2014, dated 2019).
